Experimental findings from patent US8877968B2, “Melanocortin receptor modulators, process for preparing them and use there in human medicine and cosmetics” (Galderma Research & Development, priority 2008, dated 2014) are described below.

For data set [1], the target named is T1, hMC1R (Homo sapiens, UniProt Q01726).
T1 construct: expressed in transfected cells; host or cells: HEK293
Put plainly: Transactivation test (CRE-Luc luciferase, agonist mode). The format is cell-based. The following applies: HEK293 transfected with pCRE-Luc and hMC1R; products tested alone (agonist), 6 hours; normalized to NDP-MSH 10 nM = 100%; read-out: EC50 hMC1-R. On the procedure: The lines HEK293 are transfected with vectors pCRE-Luc and hMC1R. The cells are cultured at 37° C. and 5% CO2, in DMEM medium supplemented with 10% foetal calf serum.
In the presence of an activator (agonist), the melanocortin receptor will activate the cAMP pathway, which, via the vector CRE-Luc, will lead to the synthesis of luciferase. After addition of a lysis buffer containing a luminescent luciferase substrate, the luminescence proportional to the degree of activation or inhibition of receptor may be measured.
The products are dissolved at 10 mM in DMSO. They are tested as a response dose at 0.1% of DMSO final. The range comprising 10 points and a zero starts at 10 μM with four-fold dilutions. To test agonists, the products are tested alone. To determine the antagonist behaviour, the products of interest are tested in the presence of 1 nM NDP-MSH (reference agonist). The cells are inoculated at a rate of 5000 cells per well (384-well plate) in serum-free DMEM medium and incubated overnight at 37° C. and 5% CO2.
The products and the reference ligand (NDP-MSH) are added the following day and the plates are reincubated for 6 hours at 37° C. and 5% CO2. After adding the lysis buffer containing luciferin, the plates are read in a Top-Count machine. […] An EC50 is calculated for each product using the XLFit software. […]

The test system of data set [2] is B6.Cg-Ay mice. Put plainly: Modulation of the pigmentation of hair during regrowth after depilation in mice. The following applies: female B6.Cg-Ay mice; 5% in ethanol applied topically every day for 11 days after depilation; chromametry 19 days after depilation; smaller L = darker hair. The format is in vivo. From the text: FIG. 2 is a bar graph showing the modulation of the pigmentation of hair during regrowth after depilation in mice, where the L value measures color on a scale where the smaller the value of L, the darker the hair, for two compounds of the invention diluted in ethanol and applied topically each day for 11 days after depilation.
Modulation of the Pigmentation of Hair During Regrowth After Depilation in Mice: (Results in Table of FIG. 2)
Female 8-week-old B6.Cg-Ay mice are shaved and then subjected to depilation with cold wax under gaseous anaesthesia to synchronize all the hair follicles at the start of the anagenic phase.
After depilation, the MC1R agonists diluted to 5% in ethanol are applied topically every day to the depilated area for 11 days. Nineteen days after depilation, the pigmentation of the hairs is measured by chromametry on the area of regrowth: the L value measures the colour on a scale ranging from black to white (the smaller the value of L, the darker the hair).

A short description of data set [3]: Test of metabolic stability in the presence of liver microsomes. The data set is classed as in vitro ADME. The note with it: liver microsomes 0.5 mg/ml, product 10 μM, 37° C., pH 7.4, NADP/G6P cofactors; disappearance of parent by LC/MS/MS; species not given; read-out: t½. The protocol: Test of Metabolic Stability in the Presence of Liver Microsomes
The microsomes are cellular endoplasmic reticulum vesicles obtained after purification, from liver tissue. They contain membrane enzymes (Cytochromes P450) involved in oxidative metabolism (phase I).
In a buffered reaction medium at 37° C., the test product is incubated in the presence of microsomes from different species. Samples of the incubate are taken at different times (kinetics). Quantification by LC/MS/MS analysis makes it possible to measure the disappearance of parent product associated with the phase I liver metabolism.
The products are dissolved at 10 mM in DMSO. They are incubated at 10 μM in the presence of microsomes (0.5 mg/ml). The reaction medium is formed from 100 mM phosphate buffer at pH 7.4, G6PDH (0.4 U/ml), 0.01% Pluronic acid and cofactors MgCl2 5 mM, NADP and G6P (1.3 mM and 3.3 mM, respectively). Samples of the reaction medium are taken at 0, 5, 10, 15, 30 and 60 minutes. At each time, the enzymatic reaction is stopped by adding methanol. After centrifugation (3000 rpm, 30 minutes), the samples are analysed by LC/MS/MS. The concentration of parent product remaining is quantified over time and allows a half-life to be calculated for each product.
(In general: Microsomes from liver hold many membrane-bound enzymes, among them those of drug oxidation.)

A short description of data set [4]: Log P and Log D by HPLC-MS (octanol-water). The data set is classed as physicochemical. The note with it: octanol/water (50/50 v/v); octanol-water 50/50, pH 6.5, LC/MS/MS. From the text: Lod P and Loci D by HPLC-MS
Log P, also known as Log Kow, (octanol/water partition coefficient) enables characterization of the lipophilic nature of a molecule. Log P=Log(Coct/Cwater)
In contrast with Log P, Log D is a determination of a given pH.
Preparation of the Samples
The molecule at 10^−2M in DMSO is placed in an octanol-water mixture (50/50 volume/volume).
After stirring for ten hours, the sample is centrifuged and the two phases are separated in order to be analysed. The octanol phase is diluted in methanol before assay.
The concentrations of test molecule present in each phase are determined by an LC/MS/MS analysis. Log P=Log(areaoct*Dilution factor/areaaq)

The term EC50 denotes the concentration at which the effect is half-maximal. A word on the logD: it is the decadic logarithm of the distribution of all forms, ionised or not, between an organic phase and buffer at a given pH.

Each structure is given as a SMILES string.

T1 sequence (Q01726 whole entry): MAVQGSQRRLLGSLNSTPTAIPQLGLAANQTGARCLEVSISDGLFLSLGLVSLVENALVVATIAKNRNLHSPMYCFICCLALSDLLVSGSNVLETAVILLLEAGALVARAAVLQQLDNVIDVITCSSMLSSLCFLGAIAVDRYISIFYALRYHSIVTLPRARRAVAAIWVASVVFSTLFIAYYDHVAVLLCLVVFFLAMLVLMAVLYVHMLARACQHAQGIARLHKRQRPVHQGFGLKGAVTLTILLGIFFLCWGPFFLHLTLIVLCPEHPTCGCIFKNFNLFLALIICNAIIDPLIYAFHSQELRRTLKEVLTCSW

Turning to `CCOC(=O)C1(C2CCCCC2)CCN(C(=O)[C@@H](Cc2ccc(OC)cc2)NC(=O)NCCc2c[nH]cn2)CC1` [Compound 34, Ethyl 4-cyclohexyl-1-[(R)-2-{3-[2-(1H-imidazol-4-yl)ethyl]-ureido}-3-(4-methoxyphenyl)propionyl]piperidine-4-carboxylate], the EC50 in data set [1] was determined as 60 nM. For the same compound, the “Value of L at D19, Mean” value in data set [2] turned out to be 27.42. Further, in data set [3], the half-life at 10 μM lay in the range of 3 to 4 min. This compound also displayed a log distribution coefficient (logD) at 10 h in data set [4] of 4.
On the same counts, the results for `CCCC(=O)C1(C2CCCCC2)CCN(C(=O)[C@@H](Cc2ccc(OC)cc2)NC(=O)NCCc2c[nH]cn2)CC1` [Compound 40, 1-[(R)-2-(4-Butyryl-4-cyclohexylpiperidin-1-yl)-1-(4-methoxybenzyl)-2-oxoethyl]-3-[2-(1H-imidazol-4-yl)ethyl]urea] are 120 nM, 31.00, 3 to 4 min and 4.8.
